# Source: patent publication US9440969B2, “Compounds and methods for kinase modulation, and indications therefor” (PLEXXIKON INC., priority 2009, dated 2016)
# Assays:
# [1] = tested on: COLO205 colon adenocarcinoma (B-Raf V600E mutation); assay: COLO205 cell growth inhibition (ATPlite luminescence); assay type: cell-based; conditions: Homo sapiens, COLO 205, 72 h, COLO205 cells, incubated 3 days with compound
# Experimental: Compounds are assessed in a variety of cell based assays. For example human cell lines with B-Raf V600E mutation (A375 melanoma, SKMEL3 melanoma, and COLO205 colon adenocarcinoma), as well as tumorigenic cell lines with wild-type B-RAF (SW620 colon adenocarcinoma) or with Ras mutations (SKMEL2 melanoma and IPC298 melanoma). Similar assays may be used to assess additional tumorigenic cell lines with Ras mutations, including, but not limited to, M202, M207, M243, M244, M296, S117, HCT116, HCT15, DLD1, MiaPaCa, A549, NCI-H23, NCI-H460, HOP62, MDA-MB231, Hs-578T, HL60, MOLT-4, and CCRF-CEM.
# On day 1, cells are counted, then centrifuged in a conical tube for 5 minutes at 1000 rpm. The supernatant is removed and cells are re-suspended as follows: • SW620 (ATCC catalog #CCL-27): resuspend in Leibovitz's L-15 medium, 2 mM L-glutamine, 10% fetal bovine serum to 6×10^4 cells/mL. • A375 (ATCC catalog #CRL-1619): resuspend in Dulbecco's modified Eagle's medium, 4 mM L-glutamine, 4.5 g/L D-glucose, 10% fetal bovine serum to 6×10^4 cells/mL. • COLO205 (ATCC catalog #CCL-222): resuspend in RPMI 1640, 2 mM L-glutamine, 1.5 g/L sodium bicarbonate, 4.5 g/L D-glucose, 10 mM HEPES, 1.0 mM sodium pyruvate, 10% fetal bovine serum to 6×10^4 cells/mL. • SKMEL2 (ATCC catalog #HTB-68): resuspend in Minimum Eagle essential medium, 2 mM L-glutamine, 1.5 g/L sodium bicarbonate, 0.1 mM non-essential amino acids, 1.0 mM sodium pyruvate, 10% fetal bovine serum to 6×10^4 cells/mL. • SKMEL3 (ATCC catalog #HTB-69): resuspend in McCoy's 5A medium, 1.5 mM L-glutamine, 15% fetal bovine serum to 6×10^4 cells/mL. • IPC298 (DSMZ catalog #ACC 251): resuspend in RPMI 1640, 2 mM L-glutamine, 10% fetal bovine serum to 6×10^4 cells/mL.
# The cells are plated, 50 μL in each well of a 96-well dish (Corning 3610) and incubated at 37° C. in 5% CO2 overnight, cells plated to a final concentration of cells as follows:
# On day 2, compound at a maximum concentration of 5 mM is serially diluted 1:3 (e.g. 10 μL with 30 μL dimethyl sulfoxide) for a total of 8 point titration with DMSO as a control. A 1 μL aliquot of each dilution point and control is added to 249 μL growth media and 50 μL is added to a well containing cells, providing 10 μM compound at the maximum concentration point. The cells are incubated for 3 days at 37° C. in 5% CO2.
# On day 5, ATPlite 1 step Luminescence Assay System (Perkin Elmer #6016739) is brought to room temperature along with the cell cultures. ATPlite is added 25 μL to each well, shake for 2 minutes, and the cells are incubated at room temperature for 10 minutes, then luminescence is read on Safire reader. The measured luminescence correlates directly with cell number, such that the reading as a function of compound concentration is used to determine the IC50 value.
# It is understood that the results of these assays may vary as assay conditions are varied. Inhibition levels determined under the conditions described herein represent a relative activity for the compounds tested under the specific conditions employed. The cell based assays are likely to show variability due to the complexity of the system and the sensitivity thereof to any changes in the assay conditions. […] Results for compounds that are tested and show substantially no inhibition below the highest tested concentration are represented as “-” in the tables below. In some instances, the compounds were not tested in all of the assays, or assay results were not valid, as indicated by NA in the tables below.
# B-Raf V600E = B-Raf V600E (Homo sapiens, UniProt P15056, V600E); assay: B-Raf V600E kinase activity assay (AlphaScreen, biotin-MEK1 substrate); conditions: 100 μM ATP, 100 nM biotin-MEK1, 45 minutes at room temperature, read-out: Biochemical activity (IC50 μM) V600E
# Outline: (§1)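 AlphaScreen detection of phospho-MEK1 uses anti-phospho-MEK1/2 antibody and donor/acceptor beads, incubated 3 h. The kinase step runs 45 min at room temperature with 0.1 ng enzyme, 100 nM biotin-MEK1 and 100 μM ATP in 50 mM HEPES pH 7.0. IC50 is derived from eight compound concentrations.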
# c-Raf-1 = c-Raf-1 (Homo sapiens, UniProt P04049); assay: c-Raf-1 kinase activity assay (AlphaScreen, biotin-MEK1 substrate); conditions: 100 μM ATP, 100 nM biotin-MEK1, 45 minutes at room temperature; read-out: Biochemical activity (IC50 μM) c-Raf-1
# Outline: as §1
# B-Raf = B-Raf (Homo sapiens, UniProt P15056); assay: B-Raf kinase activity assay (AlphaScreen, biotin-MEK1 substrate); conditions: 100 μM ATP, 100 nM biotin-MEK1, 45 minutes at room temperature; read-out: Biochemical activity (IC50 μM) B-Raf
# Outline: as §1
# Sequence of B-Raf V600E (P15056 whole entry V600E): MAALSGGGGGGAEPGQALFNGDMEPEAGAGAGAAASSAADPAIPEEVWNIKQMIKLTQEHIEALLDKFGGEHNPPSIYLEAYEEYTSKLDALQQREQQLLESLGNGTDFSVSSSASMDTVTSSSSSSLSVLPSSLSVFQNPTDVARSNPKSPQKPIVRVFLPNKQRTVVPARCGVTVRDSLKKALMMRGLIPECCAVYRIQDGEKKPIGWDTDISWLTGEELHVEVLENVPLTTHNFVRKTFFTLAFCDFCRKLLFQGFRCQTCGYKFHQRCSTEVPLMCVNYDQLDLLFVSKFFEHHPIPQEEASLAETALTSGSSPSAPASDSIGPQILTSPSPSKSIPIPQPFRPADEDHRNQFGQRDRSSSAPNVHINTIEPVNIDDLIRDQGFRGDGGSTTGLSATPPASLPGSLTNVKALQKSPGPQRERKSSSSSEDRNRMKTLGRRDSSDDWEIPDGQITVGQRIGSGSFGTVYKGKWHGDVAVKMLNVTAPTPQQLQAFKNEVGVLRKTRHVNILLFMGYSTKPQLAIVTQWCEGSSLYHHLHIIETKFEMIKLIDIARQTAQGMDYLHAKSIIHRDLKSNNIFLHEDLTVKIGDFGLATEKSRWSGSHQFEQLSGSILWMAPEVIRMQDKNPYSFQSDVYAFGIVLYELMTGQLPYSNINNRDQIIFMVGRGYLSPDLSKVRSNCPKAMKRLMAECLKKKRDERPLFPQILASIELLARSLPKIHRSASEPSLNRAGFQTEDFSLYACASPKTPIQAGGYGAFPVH
# Sequence of c-Raf-1 (P04049 whole entry Y340D/Y341D, form open): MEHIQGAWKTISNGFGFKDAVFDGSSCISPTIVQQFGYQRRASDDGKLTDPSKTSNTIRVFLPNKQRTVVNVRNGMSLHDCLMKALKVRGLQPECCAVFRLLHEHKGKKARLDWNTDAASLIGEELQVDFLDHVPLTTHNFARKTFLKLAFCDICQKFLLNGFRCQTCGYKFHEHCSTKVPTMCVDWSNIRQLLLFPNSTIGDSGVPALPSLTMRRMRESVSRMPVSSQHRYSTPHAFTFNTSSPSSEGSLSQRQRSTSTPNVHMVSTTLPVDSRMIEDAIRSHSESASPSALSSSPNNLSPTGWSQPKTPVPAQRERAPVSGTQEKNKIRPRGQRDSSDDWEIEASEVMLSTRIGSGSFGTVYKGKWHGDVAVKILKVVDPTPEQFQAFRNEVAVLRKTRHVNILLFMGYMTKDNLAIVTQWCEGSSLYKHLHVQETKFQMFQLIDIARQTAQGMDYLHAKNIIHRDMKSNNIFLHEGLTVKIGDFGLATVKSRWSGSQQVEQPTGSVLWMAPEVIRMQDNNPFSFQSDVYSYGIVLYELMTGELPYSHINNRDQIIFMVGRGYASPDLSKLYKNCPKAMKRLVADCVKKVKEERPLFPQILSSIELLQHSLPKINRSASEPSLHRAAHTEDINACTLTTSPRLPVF
# Sequence of B-Raf (P15056 whole entry): as the sequence (P15056 whole entry V600E) above, with E600V counted along it
IC50 [1],IC50 (B-Raf V600E),IC50 (c-Raf-1),IC50 (B-Raf),SMILES
< 1 µM,< 0.1 µM,< 0.1 µM,< 0.1 µM,"CCCS(=O)(=O)Nc1ccc(F)c(C(=O)c2c[nH]c3ncc(-c4cnn(-c5ncccn5)c4)cc23)c1F [P-1005, Propane-1-sulfonic acid {2,4-difluoro-3-[5-(1-pyrimidin-2-yl-1H-pyrazol-4-yl)-1H-pyrrolo[2,3-b]pyridine-3-carbonyl]-phenyl}-amide]"
> 1 µM,< 0.1 µM,< 0.1 µM,< 0.1 µM,"CCCS(=O)(=O)Nc1ccc(F)c(C(=O)c2c[nH]c3ncc(-c4csc(N(C)C)n4)cc23)c1F [P-1102, Propane-1-sulfonic acid {3-[5-(2-dimethylamino-thiazol-4-yl)-1H-pyrrolo[2,3-b]pyridine-3-carbonyl]-2,4-difluoro-phenyl}-amide]"
> 1 µM,< 0.1 µM,< 0.1 µM,< 0.1 µM,"CCCS(=O)(=O)Nc1ccc(F)c(C(=O)c2c[nH]c3ncc(-c4csc(-n5cccn5)n4)cc23)c1F [P-1103, Propane-1-sulfonic acid {2,4-difluoro-3-[5-(2-pyrazol-1-yl-thiazol-4-yl)-1H-pyrrolo[2,3-b]pyridine-3-carbonyl]-phenyl}-amide]"
< 1 µM,< 0.1 µM,< 0.1 µM,< 0.1 µM,"CCCS(=O)(=O)Nc1ccc(F)c(C(=O)c2c[nH]c3ncc(-c4cnc(-n5ccnc5)s4)cc23)c1F [P-1104, Propane-1-sulfonic acid {2,4-difluoro-3-[5-(2-imidazol-1-yl-thiazol-5-yl)-1H-pyrrolo[2,3-b]pyridine-3-carbonyl]-phenyl}-amide]"
> 1 µM,< 0.1 µM,< 0.1 µM,< 0.1 µM,"CCCS(=O)(=O)Nc1ccc(F)c(C(=O)c2c[nH]c3ncc(-c4csc(-n5ccnc5)n4)cc23)c1F [P-1106, Propane-1-sulfonic acid {2,4-difluoro-3-[5-(2-imidazol-1-yl-thiazol-4-yl)-1H-pyrrolo[2,3-b]pyridine-3-carbonyl]-phenyl}-amide]"
> 1 µM,< 0.1 µM,< 0.1 µM,< 0.1 µM,"CCCS(=O)(=O)Nc1ccc(F)c(C(=O)c2c[nH]c3ncc(-c4ccc(-c5cccnc5)s4)cc23)c1F [P-1200, Propane-1-sulfonic acid {2,4-difluoro-3-[5-(5-pyridin-3-yl-thiophen-2-yl)-1H-pyrrolo[2,3-b]pyridine-3-carbonyl]-phenyl}-amide]"
< 1 µM,< 0.1 µM,< 0.1 µM,< 0.1 µM,"CCCS(=O)(=O)Nc1ccc(F)c(C(=O)c2c[nH]c3ncc(-c4ccc(-c5cc[nH]n5)s4)cc23)c1F [P-1201, Propane-1-sulfonic acid (2,4-difluoro-3-{5-[5-(1H-pyrazol-3-yl)-thiophen-2-yl]-1H-pyrrolo[2,3-b]pyridine-3-carbonyl}-phenyl)-amide]"
> 1 µM,< 0.1 µM,< 0.1 µM,< 0.1 µM,"CCCS(=O)(=O)Nc1ccc(F)c(C(=O)c2c[nH]c3ncc(-c4ccccn4)cc23)c1F [P-1401, Propane-1-sulfonic acid [2,4-difluoro-3-(5-pyridin-2-yl-1H-pyrrolo[2,3-b]pyridine-3-carbonyl)-phenyl]-amide]"
< 1 µM,< 0.1 µM,< 0.1 µM,< 0.1 µM,"CCCS(=O)(=O)Nc1ccc(F)c(C(=O)c2c[nH]c3ncc(-c4cnc(N)cn4)cc23)c1F [P-1603, Propane-1-sulfonic acid {3-[5-(5-amino-pyrazin-2-yl)-1H-pyrrolo[2,3-b]pyridine-3-carbonyl]-2,4-difluoro-phenyl}-amide]"

# The next lines start with the compound.
SMILES,IC50 [1],IC50 (B-Raf V600E),IC50 (c-Raf-1),IC50 (B-Raf)
"CCCS(=O)(=O)Nc1ccc(F)c(C(=O)c2c[nH]c3ncc(-c4cnn(-c5nnn[nH]5)c4)cc23)c1F [P-1008, Propane-1-sulfonic acid (2,4-difluoro-3-{5-[1-(1H-tetrazol-5-yl)-1H-pyrazol-4-yl]-1H-pyrrolo[2,3-b]pyridine-3-carbonyl}-phenyl)-amide]",> 1 µM,< 0.1 µM,< 0.1 µM,< 0.1 µM
"CCCS(=O)(=O)Nc1ccc(F)c(C(=O)c2c[nH]c3ncc(-c4csc(-n5cnc(C)c5)n4)cc23)c1F [P-1100, Propane-1-sulfonic acid (2,4-difluoro-3-{5-[2-(4-methyl-imidazol-1-yl)-thiazol-4-yl]-1H-pyrrolo[2,3-b]pyridine-3-carbonyl}-phenyl)-amide]",< 1 µM,< 0.1 µM,< 0.1 µM,< 0.1 µM
"CCCS(=O)(=O)Nc1ccc(F)c(C(=O)c2c[nH]c3ncc(-c4cnc(-n5ccnc5C)s4)cc23)c1F [P-1105, Propane-1-sulfonic acid (2,4-difluoro-3-{5-[2-(2-methyl-imidazol-1-yl)-thiazol-5-yl]-1H-pyrrolo[2,3-b]pyridine-3-carbonyl}-phenyl)-amide]",< 1 µM,< 0.1 µM,< 0.1 µM,< 0.1 µM
"CCCS(=O)(=O)Nc1ccc(F)c(C(=O)c2c[nH]c3ncc(-c4ccc(S(N)(=O)=O)s4)cc23)c1F [P-1202, 5-{3-[2,6-Difluoro-3-(propane-1-sulfonylamino)-benzoyl]-1H-pyrrolo[2,3-b]pyridin-5-yl}-thiophene-2-sulfonic acid amide]",< 1 µM,< 0.1 µM,< 0.1 µM,< 0.1 µM
"CCCS(=O)(=O)Nc1ccc(F)c(C(=O)c2c[nH]c3ncc(-c4ccc(-c5noc(C)n5)s4)cc23)c1F [P-1203, Propane-1-sulfonic acid (2,4-difluoro-3-{5-[5-(5-methyl-[1,2,4]oxadiazol-3-yl)-thiophen-2-yl]-1H-pyrrolo[2,3-b]pyridine-3-carbonyl}-phenyl)-amide]",> 1 µM,< 0.1 µM,< 0.1 µM,< 0.1 µM
"CCCS(=O)(=O)Nc1ccc(F)c(C(=O)c2c[nH]c3ncc(-c4cnc(-n5cccn5)cn4)cc23)c1F [P-1601, Propane-1-sulfonic acid {2,4-difluoro-3-[5-(5-pyrazol-1-yl-pyrazin-2-yl)-1H-pyrrolo[2,3-b]pyridine-3-carbonyl]-phenyl}-amide]",< 1 µM,< 0.1 µM,< 0.1 µM,< 0.1 µM
"CCCS(=O)(=O)Nc1ccc(F)c(C(=O)c2c[nH]c3ncc(-c4cnc(-n5ccnc5)cn4)cc23)c1F [P-1602, Propane-1-sulfonic acid {2,4-difluoro-3-[5-(5-imidazol-1-yl-pyrazin-2-yl)-1H-pyrrolo[2,3-b]pyridine-3-carbonyl]-phenyl}-amide]",< 1 µM,< 0.1 µM,< 0.1 µM,< 0.1 µM
